# Measurements published in patent US20230136600A1, “Method and device for screening antigen epitope polypeptide” (priority 2020, published 2023).
# Experiments:
# [1] = test system: novel coronavirus (live coronavirus), vero cells; assay: In-vitro live virus neutralization experiment with serum of immunized mice (CPE method); assay type: in vivo, SARS-CoV-2; conditions: Embodiment I: single peptide 100 μg + MF59 at Day 0, 14, 28, Balb/c mice, serum Day 35
# Balb/c mice = assay: Polypeptide chip-based vaccine immunogenicity scoring system; assay type: in vivo; parameters: key to A2: whether the 95 percentile of the last sampling is increased compared with the end point: Y = rise; N = no rise
# [2] = Embodiment III, polypeptide-KLH
# [3] = Embodiment III, polypeptide-KLH, Mix1-10
# [4] = Embodiment III, polypeptide-KLH, total score = 5
# [5] = Embodiment III, polypeptide-KLH, value of the whole mix
# [6] = adjuvant AddaVax, 7 peptides co-immunized in mice
# [7] = adjuvant Adju-Phos, 7 peptides co-immunized in mice
# [8] = adjuvant Alhydrogel, 7 peptides co-immunized in mice
# [9] = adjuvant Imjet Alumn, 7 peptides co-immunized in mice
# [10] = adjuvant MA103A, 7 peptides co-immunized in mice
# [11] = adjuvant MA103B, 7 peptides co-immunized in mice
sequence,measurement,setting,value
KLDDKDPNFK (SARS-CoV-2) [SEQ ID NO:20],Neutralizing antibody positive rate (%),[1],20%
same,B1: D 0-D 14 95 percentile rise in the number of mice,Balb/c mice; [2],3
same,B2: D 0-D 21 95 percentile rise in the number of mice,Balb/c mice; [2],3
same,B3: D 14-D 21 95 percentile rise in the number of mice,Balb/c mice; [2],1
same,B4: D 21-D 28 95 percentile rise in the number of mice,Balb/c mice; [2],1
same,A1: difference between a highest median and a D 0 median (95 percentile),Balb/c mice; [3],0.08
same,A2: whether the 95 percentile of the last sampling is increased compared with the end point,Balb/c mice; [3],Y
same,Total single peptide,"Balb/c mice; Embodiment III, polypeptide-KLH, A*3 + B*2 + C*1",14.8
same,A: 95 percentile grouping number score,Balb/c mice; [4],3.5
same,B: Mouse performance score,Balb/c mice; [4],1.9
same,C1: #A timing-sequence response peptide fragment set,Balb/c mice; [5],511
same,C2: #B vaccine specificity peptide fragment set,Balb/c mice; [5],364
same,C3: Intersection of A and B,Balb/c mice; [5],1
same,C4: Percentage of the intersection in set B,Balb/c mice; [5],0.275
same,C: Timing-sequence response and specificity score,Balb/c mice; [5],0.5
same,1) 95 percentile grouping number A,Balb/c mice; [6],0
same,1) 95 percentile grouping number A1,Balb/c mice; [6],0
same,2) Mouse performance B,Balb/c mice; [6],1.5
same,2) Mouse performance B1,Balb/c mice; [6],1
same,2) Mouse performance B2,Balb/c mice; [6],0
same,2) Mouse performance B3,Balb/c mice; [6],3
same,3) Timing-sequence response and specificity C,Balb/c mice; [6],0
same,3) Timing-sequence response and specificity C1,Balb/c mice; [6],237
same,3) Timing-sequence response and specificity C2,Balb/c mice; [6],1244
same,3) Timing-sequence response and specificity C3,Balb/c mice; [6],0
same,3) Timing-sequence response and specificity C4,Balb/c mice; [6],0.000
same,Total single peptide,Balb/c mice; [6],3
same,1) 95 percentile grouping number A,Balb/c mice; [7],1.5
same,1) 95 percentile grouping number A1,Balb/c mice; [7],0.025
same,2) Mouse performance B,Balb/c mice; [7],1.4
same,2) Mouse performance B1,Balb/c mice; [7],2
same,2) Mouse performance B2,Balb/c mice; [7],2
same,2) Mouse performance B3,Balb/c mice; [7],1
same,3) Timing-sequence response and specificity C,Balb/c mice; [7],0
same,3) Timing-sequence response and specificity C1,Balb/c mice; [7],203
same,3) Timing-sequence response and specificity C2,Balb/c mice; [7],1244
same,3) Timing-sequence response and specificity C3,Balb/c mice; [7],0
same,3) Timing-sequence response and specificity C4,Balb/c mice; [7],0.000
same,Total single peptide,Balb/c mice; [7],7.3
same,1) 95 percentile grouping number A,Balb/c mice; [8],0
same,1) 95 percentile grouping number A1,Balb/c mice; [8],0
same,2) Mouse performance B,Balb/c mice; [8],1.6
same,2) Mouse performance B1,Balb/c mice; [8],2
same,2) Mouse performance B2,Balb/c mice; [8],1
same,2) Mouse performance B3,Balb/c mice; [8],2
same,3) Timing-sequence response and specificity C,Balb/c mice; [8],1
same,3) Timing-sequence response and specificity C1,Balb/c mice; [8],123
same,3) Timing-sequence response and specificity C2,Balb/c mice; [8],1244
same,3) Timing-sequence response and specificity C3,Balb/c mice; [8],2
same,3) Timing-sequence response and specificity C4,Balb/c mice; [8],0.161
same,Total single peptide,Balb/c mice; [8],3.7
same,1) 95 percentile grouping number A,Balb/c mice; [9],0
same,1) 95 percentile grouping number A1,Balb/c mice; [9],0
same,2) Mouse performance B,Balb/c mice; [9],1.7
same,2) Mouse performance B1,Balb/c mice; [9],1
same,2) Mouse performance B2,Balb/c mice; [9],1
same,2) Mouse performance B3,Balb/c mice; [9],3
same,3) Timing-sequence response and specificity C,Balb/c mice; [9],1
same,3) Timing-sequence response and specificity C1,Balb/c mice; [9],100
same,3) Timing-sequence response and specificity C2,Balb/c mice; [9],1244
same,3) Timing-sequence response and specificity C3,Balb/c mice; [9],3
same,3) Timing-sequence response and specificity C4,Balb/c mice; [9],0.241
same,Total single peptide,Balb/c mice; [9],3.9
same,1) 95 percentile grouping number A,Balb/c mice; [10],1.5
same,1) 95 percentile grouping number A1,Balb/c mice; [10],0.015
same,2) Mouse performance B,Balb/c mice; [10],2.4
same,2) Mouse performance B1,Balb/c mice; [10],2
same,2) Mouse performance B2,Balb/c mice; [10],3
same,2) Mouse performance B3,Balb/c mice; [10],3
same,3) Timing-sequence response and specificity C,Balb/c mice; [10],1
same,3) Timing-sequence response and specificity C1,Balb/c mice; [10],260
same,3) Timing-sequence response and specificity C2,Balb/c mice; [10],1244
same,3) Timing-sequence response and specificity C3,Balb/c mice; [10],3
same,3) Timing-sequence response and specificity C4,Balb/c mice; [10],0.241
same,Total single peptide,Balb/c mice; [10],9.8
same,1) 95 percentile grouping number A,Balb/c mice; [11],1
same,1) 95 percentile grouping number A1,Balb/c mice; [11],0.02
same,2) Mouse performance B,Balb/c mice; [11],2.1
same,2) Mouse performance B1,Balb/c mice; [11],3
same,2) Mouse performance B2,Balb/c mice; [11],2
same,2) Mouse performance B3,Balb/c mice; [11],2
same,3) Timing-sequence response and specificity C,Balb/c mice; [11],0
same,3) Timing-sequence response and specificity C1,Balb/c mice; [11],153
same,3) Timing-sequence response and specificity C2,Balb/c mice; [11],1244
same,3) Timing-sequence response and specificity C3,Balb/c mice; [11],0
same,3) Timing-sequence response and specificity C4,Balb/c mice; [11],0.000
same,Total single peptide,Balb/c mice; [11],7.2
